Data taken from ChEMBL document CHEMBL4507274 (2021).

Key:
[1] = molecular target: Tyrosine-protein kinase BTK (Homo sapiens) (UniProt Q06187); conditions: Compound concentration 100.0 nM
[2] = molecular target: Ephrin type-B receptor 6 (Homo sapiens) (UniProt O15197); conditions: Compound concentration 100.0 nM
[3] = molecular target: RAC-alpha serine/threonine-protein kinase (Homo sapiens) (UniProt P31749); conditions: Compound concentration 100.0 nM
[4] = tested on: Tyrosine-protein kinase ABL1 (Homo sapiens), P00519 [M351T]; conditions: Compound concentration 100.0 nM
[5] = tested on: Receptor-type tyrosine-protein kinase FLT3 (Homo sapiens), P36888 [D835Y]; conditions: Compound concentration 100.0 nM
[6] = tested on: Tyrosine-protein kinase ABL1 (Homo sapiens), P00519 [F317L]; conditions: Compound concentration 100.0 nM
[7] = molecular target: cAMP-dependent protein kinase catalytic subunit alpha (Homo sapiens) (UniProt P17612); conditions: Compound concentration 100.0 nM
[8] = molecular target: Mitogen-activated protein kinase kinase kinase 10 (Homo sapiens) (UniProt Q02779); conditions: Compound concentration 100.0 nM
[9] = molecular target: Casein kinase I isoform gamma-2 (Homo sapiens) (UniProt P78368); conditions: Compound concentration 100.0 nM
Sequence of Casein kinase I isoform gamma-2 (Homo sapiens) (P78368 whole entry, looked up, canonical isoform): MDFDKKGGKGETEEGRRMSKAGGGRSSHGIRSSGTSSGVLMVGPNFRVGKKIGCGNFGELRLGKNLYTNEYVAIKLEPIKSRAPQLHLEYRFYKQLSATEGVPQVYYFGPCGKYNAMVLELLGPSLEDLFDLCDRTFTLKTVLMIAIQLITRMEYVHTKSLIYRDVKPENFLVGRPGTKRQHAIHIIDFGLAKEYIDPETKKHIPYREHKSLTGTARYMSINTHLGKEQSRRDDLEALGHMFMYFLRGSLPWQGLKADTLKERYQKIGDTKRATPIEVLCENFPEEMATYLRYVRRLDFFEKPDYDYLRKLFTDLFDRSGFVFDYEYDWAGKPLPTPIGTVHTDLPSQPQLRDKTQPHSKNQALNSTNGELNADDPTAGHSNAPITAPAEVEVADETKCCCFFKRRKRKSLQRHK

[10] = molecular target: Serine/threonine-protein kinase SIK1 (Homo sapiens) (UniProt P57059); conditions: Compound concentration 100.0 nM
[11] = molecular target: Serine/threonine-protein kinase PLK3 (Homo sapiens) (UniProt Q9H4B4); conditions: Compound concentration 100.0 nM
[12] = molecular target: Mast/stem cell growth factor receptor Kit (Homo sapiens) (UniProt P10721); conditions: Compound concentration 100.0 nM
[13] = molecular target: Serine/threonine-protein kinase Nek10 (Homo sapiens) (UniProt Q6ZWH5); conditions: Compound concentration 100.0 nM
[14] = molecular target: Serine/threonine-protein kinase LATS2 (Homo sapiens) (UniProt Q9NRM7); conditions: Compound concentration 100.0 nM
[15] = molecular target: Serine/threonine-protein kinase PAK 1 (Homo sapiens) (UniProt Q13153); conditions: Compound concentration 100.0 nM
[16] = molecular target: Serine/threonine-protein kinase RIO1 (Homo sapiens) (UniProt Q9BRS2); conditions: Compound concentration 100.0 nM
[17] = molecular target: Bone morphogenetic protein receptor type-1A (Homo sapiens) (UniProt P36894); conditions: Compound concentration 100.0 nM
[18] = molecular target: Homeodomain-interacting protein kinase 3 (Homo sapiens) (UniProt Q9H422); conditions: Compound concentration 100.0 nM
Sequence of Homeodomain-interacting protein kinase 3 (Homo sapiens) (Q9H422 whole entry, looked up, canonical isoform): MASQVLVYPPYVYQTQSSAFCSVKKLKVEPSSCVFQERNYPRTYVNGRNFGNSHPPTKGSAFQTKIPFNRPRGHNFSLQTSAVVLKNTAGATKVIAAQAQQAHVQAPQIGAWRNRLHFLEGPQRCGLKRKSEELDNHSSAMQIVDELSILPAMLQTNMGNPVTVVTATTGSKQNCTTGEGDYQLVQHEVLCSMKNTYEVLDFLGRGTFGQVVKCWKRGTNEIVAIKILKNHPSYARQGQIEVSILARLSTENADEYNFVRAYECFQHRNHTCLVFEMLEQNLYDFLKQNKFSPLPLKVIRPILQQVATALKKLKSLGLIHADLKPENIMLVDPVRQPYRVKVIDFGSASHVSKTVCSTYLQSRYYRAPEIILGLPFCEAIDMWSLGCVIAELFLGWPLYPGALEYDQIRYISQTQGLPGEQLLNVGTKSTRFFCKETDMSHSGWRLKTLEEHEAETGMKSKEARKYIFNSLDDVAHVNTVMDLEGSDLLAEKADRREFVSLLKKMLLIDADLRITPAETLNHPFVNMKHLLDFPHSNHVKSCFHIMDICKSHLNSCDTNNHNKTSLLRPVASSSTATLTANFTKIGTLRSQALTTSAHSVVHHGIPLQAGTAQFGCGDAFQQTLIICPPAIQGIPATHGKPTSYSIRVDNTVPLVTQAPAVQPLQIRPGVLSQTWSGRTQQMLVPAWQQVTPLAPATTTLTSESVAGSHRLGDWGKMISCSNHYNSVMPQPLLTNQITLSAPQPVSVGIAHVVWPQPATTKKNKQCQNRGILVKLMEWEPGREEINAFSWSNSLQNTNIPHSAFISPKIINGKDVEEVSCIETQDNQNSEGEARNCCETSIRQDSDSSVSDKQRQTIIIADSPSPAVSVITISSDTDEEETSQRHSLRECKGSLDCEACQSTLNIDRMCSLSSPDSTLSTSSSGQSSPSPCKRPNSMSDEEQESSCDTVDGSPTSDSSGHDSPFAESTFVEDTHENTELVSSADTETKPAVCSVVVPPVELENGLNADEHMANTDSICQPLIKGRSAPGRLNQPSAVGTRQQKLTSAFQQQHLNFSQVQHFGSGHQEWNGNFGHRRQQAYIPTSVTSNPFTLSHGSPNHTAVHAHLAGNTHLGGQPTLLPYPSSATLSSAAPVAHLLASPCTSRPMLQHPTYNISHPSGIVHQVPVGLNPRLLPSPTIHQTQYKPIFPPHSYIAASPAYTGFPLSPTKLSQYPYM

[19] = molecular target: Casein kinase I isoform gamma-1 (Homo sapiens) (UniProt Q9HCP0); conditions: Compound concentration 100.0 nM
[20] = molecular target: Alpha-1B adrenergic receptor (Homo sapiens) (UniProt P35368); conditions: Compound concentration 10.0 uM
[21] = molecular target: Casein kinase I isoform epsilon (Homo sapiens) (UniProt P49674); conditions: Compound concentration 100.0 nM
[22] = molecular target: Serine/threonine-protein kinase 4 (Homo sapiens) (UniProt Q13043); conditions: Compound concentration 100.0 nM
[23] = molecular target: Activated CDC42 kinase 1 (Homo sapiens) (UniProt Q07912); conditions: Compound concentration 100.0 nM
[24] = molecular target: AP2-associated protein kinase 1 (Homo sapiens) (UniProt Q2M2I8); conditions: Compound concentration 100.0 nM
[25] = molecular target: MAP/microtubule affinity-regulating kinase 4 (Homo sapiens) (UniProt Q96L34); conditions: Compound concentration 100.0 nM
[26] = molecular target: Serine/threonine-protein kinase TNNI3K (Homo sapiens) (UniProt Q59H18); conditions: Compound concentration 100.0 nM
Sequence of Serine/threonine-protein kinase TNNI3K (Homo sapiens) (Q59H18 whole entry): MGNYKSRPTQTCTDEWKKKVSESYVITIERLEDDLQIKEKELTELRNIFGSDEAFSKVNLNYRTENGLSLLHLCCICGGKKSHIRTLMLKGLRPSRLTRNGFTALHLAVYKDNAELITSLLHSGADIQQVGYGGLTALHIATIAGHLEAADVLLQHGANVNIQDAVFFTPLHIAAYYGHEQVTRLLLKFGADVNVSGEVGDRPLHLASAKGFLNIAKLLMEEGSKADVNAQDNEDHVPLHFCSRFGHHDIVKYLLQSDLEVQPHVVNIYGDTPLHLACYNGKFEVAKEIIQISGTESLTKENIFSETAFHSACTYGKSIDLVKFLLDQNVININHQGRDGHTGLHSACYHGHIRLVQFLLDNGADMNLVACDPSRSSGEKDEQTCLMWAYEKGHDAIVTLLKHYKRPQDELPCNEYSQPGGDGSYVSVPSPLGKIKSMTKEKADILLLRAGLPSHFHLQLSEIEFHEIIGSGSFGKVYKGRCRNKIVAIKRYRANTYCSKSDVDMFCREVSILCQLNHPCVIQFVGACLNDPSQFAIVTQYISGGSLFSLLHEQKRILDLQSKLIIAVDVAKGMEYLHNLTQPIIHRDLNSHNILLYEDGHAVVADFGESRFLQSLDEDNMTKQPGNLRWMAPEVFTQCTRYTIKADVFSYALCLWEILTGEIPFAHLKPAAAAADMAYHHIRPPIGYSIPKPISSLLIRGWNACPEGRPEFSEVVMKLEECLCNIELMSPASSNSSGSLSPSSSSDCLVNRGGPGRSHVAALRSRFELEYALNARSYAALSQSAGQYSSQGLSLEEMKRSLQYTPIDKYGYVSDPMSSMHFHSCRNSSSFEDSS

[27] = molecular target: Dual specificity protein kinase CLK4 (Homo sapiens) (UniProt Q9HAZ1); conditions: Compound concentration 100.0 nM
Sequence of Dual specificity protein kinase CLK4 (Homo sapiens) (Q9HAZ1 whole entry, looked up): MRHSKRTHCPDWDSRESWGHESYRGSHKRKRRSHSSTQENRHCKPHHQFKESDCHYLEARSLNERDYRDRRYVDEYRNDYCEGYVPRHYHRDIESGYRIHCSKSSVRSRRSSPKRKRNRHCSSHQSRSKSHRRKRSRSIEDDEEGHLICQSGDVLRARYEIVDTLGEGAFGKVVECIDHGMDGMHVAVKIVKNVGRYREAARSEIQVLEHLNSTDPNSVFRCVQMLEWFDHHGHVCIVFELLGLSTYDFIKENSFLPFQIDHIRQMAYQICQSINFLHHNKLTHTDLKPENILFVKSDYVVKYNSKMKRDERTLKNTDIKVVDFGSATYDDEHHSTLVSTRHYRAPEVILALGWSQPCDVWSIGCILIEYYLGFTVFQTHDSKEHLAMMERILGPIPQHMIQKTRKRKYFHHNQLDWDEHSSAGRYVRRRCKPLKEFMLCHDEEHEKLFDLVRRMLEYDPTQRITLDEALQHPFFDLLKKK

[28] = molecular target: Serine/threonine-protein kinase ULK2 (Homo sapiens) (UniProt Q8IYT8); conditions: Compound concentration 100.0 nM
[29] = molecular target: 5-hydroxytryptamine receptor 3A (Homo sapiens) (UniProt P46098); conditions: Compound concentration 10.0 uM
[30] = molecular target: Myotonin-protein kinase (Homo sapiens) (UniProt Q09013); conditions: Compound concentration 100.0 nM
Sequence of Myotonin-protein kinase (Homo sapiens) (Q09013 whole entry): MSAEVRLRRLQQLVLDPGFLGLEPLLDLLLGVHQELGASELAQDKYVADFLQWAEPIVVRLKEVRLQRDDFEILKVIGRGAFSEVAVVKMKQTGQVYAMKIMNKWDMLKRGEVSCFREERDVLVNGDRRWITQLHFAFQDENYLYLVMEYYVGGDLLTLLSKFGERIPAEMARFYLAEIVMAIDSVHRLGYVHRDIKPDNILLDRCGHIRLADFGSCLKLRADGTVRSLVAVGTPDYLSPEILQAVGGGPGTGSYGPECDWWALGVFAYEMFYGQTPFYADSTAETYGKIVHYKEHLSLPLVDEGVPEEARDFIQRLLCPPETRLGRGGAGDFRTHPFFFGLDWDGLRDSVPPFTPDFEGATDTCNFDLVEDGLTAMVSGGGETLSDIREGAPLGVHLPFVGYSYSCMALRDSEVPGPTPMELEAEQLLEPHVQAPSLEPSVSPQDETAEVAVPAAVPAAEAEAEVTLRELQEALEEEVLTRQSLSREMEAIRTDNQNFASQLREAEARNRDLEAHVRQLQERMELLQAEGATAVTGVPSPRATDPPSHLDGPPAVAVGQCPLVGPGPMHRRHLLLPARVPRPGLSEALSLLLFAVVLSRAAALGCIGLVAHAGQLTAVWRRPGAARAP

[31] = molecular target: SRSF protein kinase 2 (Homo sapiens) (UniProt P78362); conditions: Compound concentration 100.0 nM
[32] = molecular target: Serine/threonine-protein kinase PAK 4 (Homo sapiens) (UniProt O96013); conditions: Compound concentration 100.0 nM
[33] = molecular target: Receptor tyrosine-protein kinase erbB-2 (Homo sapiens) (UniProt P04626); conditions: Compound concentration 100.0 nM
[34] = molecular target: Interleukin-1 receptor-associated kinase 1 (Homo sapiens) (UniProt P51617); conditions: Compound concentration 100.0 nM
[35] = molecular target: Discoidin domain-containing receptor 2 (Homo sapiens) (UniProt Q16832); conditions: Compound concentration 100.0 nM
[36] = molecular target: Death-associated protein kinase 3 (Homo sapiens) (UniProt O43293); conditions: Compound concentration 100.0 nM
[37] = molecular target: Ephrin type-A receptor 4 (Homo sapiens) (UniProt P54764); conditions: Compound concentration 100.0 nM
[38] = molecular target: Myosin light chain kinase, smooth muscle (Homo sapiens) (UniProt Q15746); conditions: Compound concentration 100.0 nM
[39] = molecular target: Serine/threonine-protein kinase LATS1 (Homo sapiens) (UniProt O95835); conditions: Compound concentration 100.0 nM
Sequence of Serine/threonine-protein kinase LATS1 (Homo sapiens) (O95835 whole entry): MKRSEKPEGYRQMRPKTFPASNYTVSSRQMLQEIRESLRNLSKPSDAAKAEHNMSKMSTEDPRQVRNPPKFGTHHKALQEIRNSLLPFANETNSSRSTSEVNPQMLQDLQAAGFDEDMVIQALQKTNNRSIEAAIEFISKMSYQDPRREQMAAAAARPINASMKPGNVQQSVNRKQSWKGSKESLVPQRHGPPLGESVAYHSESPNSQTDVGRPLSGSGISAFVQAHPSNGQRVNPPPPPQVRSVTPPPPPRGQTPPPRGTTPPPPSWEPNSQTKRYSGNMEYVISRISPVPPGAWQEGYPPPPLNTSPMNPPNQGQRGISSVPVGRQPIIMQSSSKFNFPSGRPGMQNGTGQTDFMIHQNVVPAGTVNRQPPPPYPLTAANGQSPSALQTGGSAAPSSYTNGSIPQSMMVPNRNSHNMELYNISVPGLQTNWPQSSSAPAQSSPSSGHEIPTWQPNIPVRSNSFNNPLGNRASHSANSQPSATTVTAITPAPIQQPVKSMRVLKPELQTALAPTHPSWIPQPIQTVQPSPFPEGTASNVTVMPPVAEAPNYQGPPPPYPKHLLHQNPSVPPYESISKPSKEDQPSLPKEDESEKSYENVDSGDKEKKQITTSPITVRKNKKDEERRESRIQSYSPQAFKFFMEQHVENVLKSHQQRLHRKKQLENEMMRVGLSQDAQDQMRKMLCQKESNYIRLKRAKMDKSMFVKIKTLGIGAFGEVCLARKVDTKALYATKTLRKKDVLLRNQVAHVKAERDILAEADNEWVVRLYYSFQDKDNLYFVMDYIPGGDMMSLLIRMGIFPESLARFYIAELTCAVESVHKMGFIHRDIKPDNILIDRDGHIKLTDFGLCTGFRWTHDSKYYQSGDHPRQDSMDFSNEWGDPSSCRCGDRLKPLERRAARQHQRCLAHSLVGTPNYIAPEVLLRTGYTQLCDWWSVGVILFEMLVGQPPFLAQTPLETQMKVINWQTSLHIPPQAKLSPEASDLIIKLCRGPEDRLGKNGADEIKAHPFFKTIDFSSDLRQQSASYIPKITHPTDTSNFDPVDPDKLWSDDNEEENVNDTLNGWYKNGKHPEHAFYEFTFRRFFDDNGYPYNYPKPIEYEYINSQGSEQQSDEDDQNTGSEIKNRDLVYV

[40] = molecular target: Receptor-type tyrosine-protein kinase FLT3 (Homo sapiens) (UniProt P36888); conditions: Compound concentration 100.0 nM
[41] = molecular target: Receptor tyrosine-protein kinase erbB-4 (Homo sapiens) (UniProt Q15303); conditions: Compound concentration 100.0 nM
[42] = tested on: Tyrosine-protein kinase ABL1 (Homo sapiens), P00519 [F317I]; conditions: Compound concentration 100.0 nM
[43] = molecular target: D(1A) dopamine receptor (Homo sapiens) (UniProt P21728); conditions: Compound concentration 10.0 uM
[44] = molecular target: Sodium-dependent serotonin transporter (Homo sapiens) (UniProt P31645); conditions: Compound concentration 10.0 uM
[45] = tested on: Receptor-type tyrosine-protein kinase FLT3 (Homo sapiens), P36888 [D835H]; conditions: Compound concentration 100.0 nM

Cn1cc(Cl)c2c(Oc3c(F)cc(Nc4cc(Cl)nc(N)n4)cc3F)ccnc21 [BAY-4900]
inactive: residual activity [1] 84% | residual activity [2] 100% | residual activity [3] 75% | residual activity [4] 90% | residual activity [5] 99% | residual activity [6] 94% | residual activity [7] 90% | residual activity [8] 100% | residual activity [9] 83% | residual activity [10] 100% | residual activity [11] 98% | residual activity [12] 78% | residual activity [13] 66% | residual activity [14] 91% | residual activity [15] 100% | residual activity [16] 100% | residual activity [17] 95% | residual activity [18] 80% | residual activity [19] 100% | inhibition [20] 18.3% | residual activity [21] 98% | residual activity [22] 94% | residual activity [23] 85% | residual activity [24] 100% | residual activity [25] 100% | residual activity [26] 78% | residual activity [27] 100% | residual activity [28] 100% | inhibition [29] 4.46% | residual activity [30] 86% | residual activity [31] 78% | residual activity [32] 100% | residual activity [33] 95% | residual activity [34] 95% | residual activity [35] 66% | residual activity [36] 100% | residual activity [37] 100% | residual activity [38] 95% | residual activity [39] 69% | residual activity [40] 100% | residual activity [41] 97% | residual activity [42] 93% | inhibition [43] 13.2% | inhibition [44] -5.34% | residual activity [45] 78%

Cc1c[nH]c2nccc(Oc3c(F)cc(Nc4cc(Cl)nc(N)n4)cc3F)c12 [BAY-549]
inactive: residual activity [1] 96% | residual activity [2] 96% | residual activity [3] 100% | residual activity [4] 83% | residual activity [5] 63% | residual activity [6] 84% | residual activity [8] 100% | residual activity [9] 94% | residual activity [10] 98% | residual activity [11] 83% | residual activity [12] 77% | residual activity [13] 75% | residual activity [15] 100% | residual activity [16] 100% | residual activity [17] 85% | residual activity [18] 92% | residual activity [19] 100% | inhibition [20] 17% | residual activity [21] 64% | residual activity [22] 100% | residual activity [23] 95% | residual activity [24] 99% | residual activity [25] 100% | residual activity [26] 98% | residual activity [27] 86% | residual activity [28] 89% | inhibition [29] 0.5% | residual activity [30] 56% | residual activity [31] 75% | residual activity [32] 100% | residual activity [33] 99% | residual activity [34] 90% | residual activity [35] 57% | residual activity [36] 97% | residual activity [37] 100% | residual activity [38] 80% | residual activity [40] 76% | residual activity [41] 100% | residual activity [42] 100% | inhibition [43] 16.1% | inhibition [44] 2.1% | residual activity [45] 100%
active: residual activity [7] 28% | residual activity [14] 0.7% | residual activity [39] 42%
